From US20260325533A1, “CDK INHIBITOR COMPOUNDS” (ALEKSIA THERAPEUTICS, INC., priority 2023, published 2026)
Like-named read-outs stand apart in the source and are kept apart here.

What was measured:
Format in all cases: biochemical
CDK6/CCND1 = CDK6/CCND1 (Homo sapiens, UniProt Q00534); experiment: CDK6 homogeneous time-resolved fluorescence (HTRF) kinase assay; settings: CDK6/CCND
Description: (§1) A CDK homogeneous time-resolved fluorescence (HTRF) assay was used to assess the potency of the compounds described herein.
(§2) To an untreated 384-well microtiter plate (ProxiPlate) was added 100 nL 100×test compound in DMSO and 5 μL 2×CDK enzyme in assay buffer (50 mM HEPES, 1 mM EGTA, 10 mM MgCl2, 0.01% Tween 20, 2 mM DTT). The plate was centrifuged at 800 RPM for 1 min then incubated for 20 min at 23 °C. 2.5 μL per well of 4×ATP and 2.5 μL 4×ULight™-eIF4E-binding protein 1 (Thr37/46) Peptide substrate were added to all wells. After addition, the plates were centrifuged at 800 RPM for 1 min. The plates were incubated at 23 °C for 60 min. 5 μL per well 4×EDTA solution were added to each well to stop the reaction. 5 μL 4×LANCE Ultra Europium-anti-phospho-eIF4E-binding protein 1 (Thr37/46) antibody were added to each well and the plate was centrifuged for 1 min at 800 RPM. The plate was incubated for 60 min at 23 °C. Fluorescence was read at 340 nm excitation and 665 nm emission on an EnVision 2105 fluorescence reader. The final concentrations of reagents in the activity assay were 1 nM CDK6/CCND1, 1 mM ATP, 50 nM ULight™-eIF4E-binding protein 1 (Thr37/46) Peptide substrate, 1% DMSO, 10 mM EDTA, and 2 nM LANCE Ultra Europium-anti-phospho-eIF4E-binding protein 1 (Thr37/46).
(§3) Dose-response titrations were conducted by using an 11-point, half-logarithmic serial dilution scheme typically starting at 10 μM. Signals were reported as fluorescence units at 665 nm or the ratio of fluorescence units at 665 nm/fluorescence units at 615 nm. Signals are referred to below as “Lance signals”.
(§4) Using this assay, the IC50 values of example compounds were determined. Table 3 illustrates the IC50 for various Example compounds of Formula IA. Table 4 illustrates the IC50 for various other Example compounds of Formula I. ND=not determined.

CDK4/CCND3 = CDK4/CCND3 (Homo sapiens, UniProt P11802); experiment: CDK4 homogeneous time-resolved fluorescence (HTRF) kinase assay; settings: CDK4/CCND
Sequence of CDK4/CCND3 (P11802 whole entry): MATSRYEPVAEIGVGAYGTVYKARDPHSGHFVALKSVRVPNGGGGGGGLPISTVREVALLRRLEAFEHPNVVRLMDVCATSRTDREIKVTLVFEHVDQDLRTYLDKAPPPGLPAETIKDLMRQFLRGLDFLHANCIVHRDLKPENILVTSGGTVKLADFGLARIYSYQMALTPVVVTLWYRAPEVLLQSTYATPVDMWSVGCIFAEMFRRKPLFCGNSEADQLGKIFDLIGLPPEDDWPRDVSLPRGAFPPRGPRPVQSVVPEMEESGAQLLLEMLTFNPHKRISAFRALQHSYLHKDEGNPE
Sequence of CDK4/CCND3 (P30281 whole entry partner): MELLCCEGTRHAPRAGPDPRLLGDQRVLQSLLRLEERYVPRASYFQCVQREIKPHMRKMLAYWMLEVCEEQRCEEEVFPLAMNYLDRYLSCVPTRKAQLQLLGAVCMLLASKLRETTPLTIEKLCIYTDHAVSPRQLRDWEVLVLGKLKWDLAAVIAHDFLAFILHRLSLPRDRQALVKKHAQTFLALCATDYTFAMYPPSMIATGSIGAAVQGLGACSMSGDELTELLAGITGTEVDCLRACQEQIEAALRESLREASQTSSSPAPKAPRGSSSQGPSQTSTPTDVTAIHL
Description: as §1
as §2, with “were 1.5” for “were 1”, “nM CDK4/CCND3,” for “nM CDK6/CCND1,”
as §3, §4

CDK1/CCNB1 = CDK1/CCNB1 (Homo sapiens, UniProt P06493); experiment: CDK1 homogeneous time-resolved fluorescence (HTRF) kinase assay; settings: CDK1/CCNB
Sequence of CDK1/CCNB1 (P06493 whole entry): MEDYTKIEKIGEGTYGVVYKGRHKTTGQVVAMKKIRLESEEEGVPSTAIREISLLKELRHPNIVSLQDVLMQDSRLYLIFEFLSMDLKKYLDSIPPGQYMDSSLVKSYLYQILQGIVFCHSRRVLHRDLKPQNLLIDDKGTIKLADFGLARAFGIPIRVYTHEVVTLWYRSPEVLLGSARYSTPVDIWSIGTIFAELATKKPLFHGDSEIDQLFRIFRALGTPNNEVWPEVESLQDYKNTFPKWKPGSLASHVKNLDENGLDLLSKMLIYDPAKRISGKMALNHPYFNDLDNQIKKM
Sequence of CDK1/CCNB1 (P14635 whole entry partner): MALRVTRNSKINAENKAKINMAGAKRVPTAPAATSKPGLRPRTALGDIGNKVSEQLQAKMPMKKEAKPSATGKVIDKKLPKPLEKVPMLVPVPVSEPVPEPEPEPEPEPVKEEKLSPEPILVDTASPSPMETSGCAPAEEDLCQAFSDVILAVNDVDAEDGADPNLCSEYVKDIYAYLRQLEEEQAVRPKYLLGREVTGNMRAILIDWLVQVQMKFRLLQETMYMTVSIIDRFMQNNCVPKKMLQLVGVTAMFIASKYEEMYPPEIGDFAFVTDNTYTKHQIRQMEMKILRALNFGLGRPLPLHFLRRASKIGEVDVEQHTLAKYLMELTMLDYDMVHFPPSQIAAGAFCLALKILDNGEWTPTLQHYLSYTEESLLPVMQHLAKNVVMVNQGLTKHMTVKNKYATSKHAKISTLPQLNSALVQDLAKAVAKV
In short: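 CDK1/CCNB1 0.5 nM + cpd, 20 min 23 °C; add 1 mM ATP, 50 nM ULight-4E-BP1 peptide, 60 min 23 °C; stop 10 mM EDTA; 2 nM Eu-Ab, 60 min; HTRF 665 nm. 11-pt half-log, top 10 μM typical; IC50.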

CDK2/CCNE1 = CDK2/CCNE1 (Homo sapiens, UniProt P24941); experiment: CDK2 homogeneous time-resolved fluorescence (HTRF) kinase assay; settings: CDK2/CCNE
In short: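 TR-FRET read-out (665 nm, or 665/615 ratio) of Eu-antibody detection of phospho-4E-BP1 (Thr37/46) ULight peptide. Enzyme 3 nM, ATP 1 mM, peptide 50 nM, 1% DMSO; 60 min reaction at 23 °C after 20 min compound preincubation. IC50 from 11-point half-log titrations, top typically 10 μM.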

[1] = x = IC50 >250 nM, read-out: CDK4/CCND IC50 (>250 nM column)
[2] = x = IC50 >250 nM, read-out: CDK1/CCNB IC50 (>250 nM column)
[3] = x = IC50 <25 nM, read-out: CDK2/CCNE IC50 (<25 nM)
[4] = >250 nM, read-out: CDK1/CCNB IC50 >250 nM
[5] = <25 nM, read-out: CDK2/CCNE IC50, <25 nM
[6] = x = IC50 >250 nM, read-out: CDK6/CCND IC50 (>250 nM column)
[7] = x = IC50 25-250 nM, read-out: CDK2/CCNE IC50 (25-250 nM)
[8] = >250 nM marked x, read-out: CDK6/CCND IC50 >250 nM
[9] = >250 nM marked x, read-out: CDK4/CCND IC50 >250 nM
[10] = >250 nM marked x, read-out: CDK1/CCNB IC50 >250 nM
[11] = <25 nM, read-out: CDK2/CCNE IC50 <25 nM

Sequence of CDK6/CCND1 (Q00534 whole entry): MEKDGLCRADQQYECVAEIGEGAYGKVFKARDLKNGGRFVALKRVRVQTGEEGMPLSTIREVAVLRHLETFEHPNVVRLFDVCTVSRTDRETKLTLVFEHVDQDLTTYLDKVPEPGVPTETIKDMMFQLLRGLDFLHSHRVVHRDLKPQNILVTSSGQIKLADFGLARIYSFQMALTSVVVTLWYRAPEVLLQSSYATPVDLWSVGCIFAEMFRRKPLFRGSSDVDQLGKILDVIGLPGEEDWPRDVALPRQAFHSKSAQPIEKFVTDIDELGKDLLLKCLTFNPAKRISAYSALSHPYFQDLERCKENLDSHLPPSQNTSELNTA
Sequence of CDK6/CCND1 (P24385 whole entry partner): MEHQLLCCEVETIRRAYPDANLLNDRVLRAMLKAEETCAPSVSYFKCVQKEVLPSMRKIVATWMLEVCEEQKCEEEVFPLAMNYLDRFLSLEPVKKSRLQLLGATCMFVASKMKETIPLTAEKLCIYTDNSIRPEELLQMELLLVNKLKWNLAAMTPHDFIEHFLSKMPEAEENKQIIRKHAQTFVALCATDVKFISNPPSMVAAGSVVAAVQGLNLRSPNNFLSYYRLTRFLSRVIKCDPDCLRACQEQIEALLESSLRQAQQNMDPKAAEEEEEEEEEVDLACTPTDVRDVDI

Row | SMILES | IC50 (CDK4/CCND3; [1]) | IC50 (CDK1/CCNB1; [2]) | IC50 (CDK2/CCNE1; [3]) | IC50 (CDK6/CCND1; [6]) | other results
1 | Cc1c(-c2nccc3cnc(Nc4ccc5c(c4)CCS5(=O)=O)cc23)ccc2c1cnn2CC(C)(C)O [Ex 915, 5-((5-(1-(2-hydroxy-2-methylpropyl)-4-methyl-1H-indazol-5-yl)-2,6-naphthyridin-3-yl)amino)-2,3-dihydrobenzo[b]thiophene 1,1-dioxide] |  |  |  |  | IC50 (CDK6/CCND1; 25-250 nM, 1 mM ATP, read-out: CDK6/CCND IC50, 25-250 nM): 25 to 250 nM; IC50 (CDK4/CCND3; 25-250 nM, read-out: CDK4/CCND IC50, 25-250 nM): 25 to 250 nM; IC50 (CDK1/CCNB1; [4]): > 250 nM; IC50 (CDK2/CCNE1; [5]): < 25 nM
2 | CC1(C)C(=O)Nc2cc(C#Cc3nccc4cnc(Nc5ccc(S(C)(=O)=O)c(F)c5)cc34)ccc21 [Ex 422, 6-((7-((3-fluoro-4-(methylsulfonyl)phenyl)amino)-2,6-naphthyridin-1-yl)ethynyl)-3,3-dimethylindolin-2-one] | > 250 nM | > 250 nM | < 25 nM | > 250 nM | 
3 | CCS(=O)(=O)c1ccc(Nc2cc3c(C#Cc4ccc5c(c4)NC(=O)C54CC4)nccc3cn2)c(C)c1 [Ex 356, 6'-((7-((4-(ethylsulfonyl)-2-methylphenyl)amino)-2,6-naphthyridin-1-yl)ethynyl)spiro[cyclopropane-1,3'-indolin]-2'-one] | > 250 nM |  | < 25 nM | > 250 nM | IC50 (CDK1/CCNB1; x = IC50 25-250 nM, read-out: CDK1/CCNB IC50 (25-250 nM)): 25 to 250 nM
4 | Cn1nccc1C#Cc1nccc2cnc(Nc3ccc(S(C)(=O)=O)cc3)cc12 [Ex 637, 5-((1-methyl-1H-pyrazol-5-yl)ethynyl)-N-(4-(methylsulfonyl)phenyl)-2,6-naphthyridin-3-amine] | > 250 nM | > 250 nM | < 25 nM | > 250 nM | 
5 | CCC1(CC)C(=O)Nc2cc(C#Cc3nccc4cnc(Nc5ccc(S(=N)(=O)C6CCC6)cc5OC)cc34)ccc21 (single isomer, unassigned) [Ex 269, 6-((7-((4-(cyclobutanesulfonimidoyl)-2-methoxyphenyl)amino)-2,6-naphthyridin-1-yl)ethynyl)-3,3-diethylindolin-2-one] |  |  |  |  | IC50 (CDK6/CCND1; [8]): > 250 nM; IC50 (CDK4/CCND3; [9]): > 250 nM; IC50 (CDK1/CCNB1; [10]): > 250 nM; IC50 (CDK2/CCNE1; [11]): < 25 nM
6 | Cc1c(-c2nccc3cnc(Nc4ccc(NS(=O)(=O)c5ccccc5)cc4)cc23)ccc2c1cnn2CC(C)(C)O [Ex 787, N-(4-((5-(1-(2-hydroxy-2-methylpropyl)-4-methyl-1H-indazol-5-yl)-2,6-naphthyridin-3-yl)amino)phenyl)benzenesulfonamide] |  |  |  |  | IC50 (CDK6/CCND1; >250 nM, 1 mM ATP, read-out: CDK6/CCND IC50, >250 nM): > 250 nM; IC50 (CDK4/CCND3; >250 nM, read-out: CDK4/CCND IC50, >250 nM): > 250 nM; IC50 (CDK1/CCNB1; [4]): > 250 nM; IC50 (CDK2/CCNE1; [5]): < 25 nM
7 | C=CS(=O)(=O)c1ccc(Nc2cc3c(C#CC)nccc3cn2)cc1 [Ex 149, 5-(prop-1-yn-1-yl)-N-(4-(vinylsulfonyl)phenyl)-2,6-naphthyridin-3-amine] |  |  |  |  | IC50 (CDK6/CCND1; [8]): > 250 nM; IC50 (CDK4/CCND3; [9]): > 250 nM; IC50 (CDK1/CCNB1; [10]): > 250 nM; IC50 (CDK2/CCNE1; [11]): < 25 nM
8 | CS(=O)(=O)c1ccc(Nc2cc3c(C#Cc4cnc(C#N)nc4)nccc3cn2)cc1 [Ex 523, 5-((7-((4-(methylsulfonyl)phenyl)amino)-2,6-naphthyridin-1-yl)ethynyl)pyrimidine-2-carbonitrile] | > 250 nM | > 250 nM |  | > 250 nM | IC50 (CDK2/CCNE1; x = IC50 >250 nM, read-out: CDK2/CCNE IC50 (>250 nM column)): > 250 nM
9 | CS(=N)(=O)c1ccc(Nc2cc3c(C#Cc4cccnc4N)nccc3cn2)cc1 (single isomer, unassigned) [Ex 480, (4-((5-((2-aminopyridin-3-yl)ethynyl)-2,6-naphthyridin-3-yl)amino)phenyl)(imino)(methyl)-l6-sulfanone] | > 250 nM | > 250 nM |  | > 250 nM | IC50 (CDK2/CCNE1; [7]): 25 to 250 nM
10 | Nc1ncccc1C#Cc1nccc2cnc(Nc3ccc(S(=O)(=O)C4CC4)cc3)cc12 [Ex 399, 5-((2-aminopyridin-3-yl)ethynyl)-N-(4-(cyclopropylsulfonyl)phenyl)-2,6-naphthyridin-3-amine] | > 250 nM | > 250 nM | < 25 nM | > 250 nM | 
11 | C=CS(=O)(=O)c1ccc(Nc2cc3c(N4CCC(C#N)CC4)nccc3cn2)cc1 [Example 15, 1-(7-((4-(vinylsulfonyl)phenyl)amino)-2,6-naphthyridin-1-yl)piperidine-4-carbonitrile] |  |  |  |  | IC50 (CDK6/CCND1; [8]): > 250 nM; IC50 (CDK4/CCND3; [9]): > 250 nM; IC50 (CDK1/CCNB1; [10]): > 250 nM; IC50 (CDK2/CCNE1; 25-250 nM marked x, read-out: CDK2/CCNE IC50 25-250 nM): 25 to 250 nM
12 | CS(=O)(=O)c1ccc(Nc2cc3c(C#Cc4cnc5cc[nH]c5c4)nccc3cn2)cc1 [Ex 574, 5-((1H-pyrrolo[3,2-b]pyridin-6-yl)ethynyl)-N-(4-(methylsulfonyl)phenyl)-2,6-naphthyridin-3-amine] | > 250 nM | > 250 nM | < 25 nM | > 250 nM | 

Further lines, with some results ahead:

Row | IC50 (CDK4/CCND3; [1]) | IC50 (CDK1/CCNB1; [2]) | IC50 (CDK2/CCNE1; [3]) | IC50 (CDK6/CCND1; [6]) | SMILES | other results
13 | > 250 nM | > 250 nM | < 25 nM |  | CC1(O)C=C(c2nccc3cnc(Nc4ccc(S(C)(=O)=O)cc4)cc23)CCC1 (racemic) [Example 671, 1-methyl-3-(7-((4-(methylsulfonyl)phenyl)amino)-2,6-naphthyridin-1-yl)cyclohex-2-en-1-ol] | IC50 (CDK6/CCND1; x = IC50 25-250 nM, read-out: CDK6/CCND IC50 (25-250 nM)): 25 to 250 nM
14 | > 250 nM | > 250 nM |  | > 250 nM | Cc1c(-c2nccc3cnc(Nc4ccc(S(C)(=O)=O)cc4)cc23)ccc2c1cnn2CC#N [Ex 656, 2-(4-methyl-5-(7-((4-(methylsulfonyl)phenyl)amino)-2,6-naphthyridin-1-yl)-1H-indazol-1-yl)acetonitrile] | IC50 (CDK2/CCNE1; [7]): 25 to 250 nM
15 | > 250 nM | > 250 nM |  | > 250 nM | CS(=N)(=O)c1ccc(Nc2cc3c(C#Cc4ccc(C#N)cc4)nccc3cn2)cc1 (single isomer, unassigned) [Example 511, 4-((7-((4-(S-methylsulfonimidoyl)phenyl)amino)-2,6-naphthyridin-1-yl)ethynyl)benzonitrile] | IC50 (CDK2/CCNE1; [7]): 25 to 250 nM
